3 molecules from ChEMBL document CHEMBL2424520, “Screening and evaluation of small organic molecules as ClpB inhibitors and potential antimicrobials” (J Med Chem, 2013) can be followed below.

Data set [1] is described as follows: Inhibition of DNAK/CLPB (unknown origin) assessed as reactivation of malate dehydrogenase aggregates after 2 hrs.
A short description of data set [2]: Inhibition of DNAK (unknown origin) assessed as reactivation of luciferase aggregates after 2 hrs in presence of Tween 80.
Data set [3] in a line: Binding affinity to CLPB (unknown origin) expressed in Escherichia coli MC4100 assessed as change in melting temperature at 100 to 200 uM after 30 mins by DSF analysis in presence of ATP. (In general: In DSF a fluorescence change marks the thermal transition of the protein.)
Data set [4] in a line: Inhibition of CLPB (unknown origin) expressed in Escherichia coli MC4100 at 1 to 100 uM by spectrophotometric analysis.
Data set [5] is described as follows: Inhibition of DNAK (unknown origin) assessed as reactivation of luciferase aggregates after 2 hrs.
Data set [6] in a line: Binding affinity to CLPB E276A/E678A mutant (unknown origin)-alpha-casein complex expressed in Escherichia coli MC4100 at 0.1 to 1000 uM by titrimetric analysis.
The nature of data set [7]: Binding affinity to CLPB (unknown origin) expressed in Escherichia coli MC4100 assessed as change in melting temperature at 100 to 200 uM after 30 mins by DSF analysis in presence of ADP.
Data set [8] in a line: Binding affinity to CLPB (unknown origin) expressed in Escherichia coli MC4100 assessed as change in melting temperature at 100 to 200 uM after 30 mins by DSF analysis.
A short description of data set [9]: Inhibition of DNAK/CLPB (unknown origin) assessed as reactivation of malate dehydrogenase aggregates after 2 hrs in presence of Tween 80.
Data set [10] can be described thus: Inhibition of CLPB (unknown origin) expressed in Escherichia coli MC4100 using alpha-casein as substrate at 1 to 100 uM by spectrophotometric analysis.
The nature of data set [11]: Binding affinity to CLPB (unknown origin) expressed in Escherichia coli MC4100 assessed as change in melting temperature at 100 to 200 uM after 30 mins by DSF analysis in presence of ATPgammaS.
The test system of data set [12] is Escherichia coli. As to the kind of experiment: Antibacterial activity against CLPB-deleted Escherichia coli MC4100 assessed as reduction of CFU count at 300 uM at 37 degC after 24 hrs by two-fold dilution method in presence of paraquat. The class given is functional, organism-based.
Data set [13] in a line: Binding affinity to CLPB (unknown origin) expressed in Escherichia coli MC4100 up to 400 seconds by surface plasmon resonance analysis. A general note: SPR reads the build-up and loss of mass on a sensor chip optically.
Data set [14] relates to Escherichia coli. The data set can be described thus: Antibacterial activity against Escherichia coli BL21(DE3) assessed as growth inhibition at 0.1 to 1000 uM at 37 to 47 degC after 24 hrs by two-fold dilution method in presence of paraquat. It is filed as functional.
Data set [15] has as its system Escherichia coli. The data set can be described thus: Antibacterial activity against Escherichia coli MC4100 assessed as reduction of CFU count at 300 uM at 37 degC after 24 hrs by two-fold dilution method in presence of paraquat. The class given is functional.
Data set [16] can be described thus: Binding affinity to CLPB E276A/E678A mutant (unknown origin) expressed in Escherichia coli MC4100 at 80 uM in presence of alpha-casein by spectrofluorimetric analysis.
For data set [17], the system named is Escherichia coli. The data set can be described thus: Antibacterial activity against CLPB-deleted Escherichia coli MC4100 assessed as reduction of CFU count at 300 uM at 37 degC after 24 hrs by two-fold dilution method. It is filed as functional, organism-based.
For data set [18], the system named is Escherichia coli. The data set can be described thus: Antibacterial activity against Escherichia coli BL21(DE3) assessed as growth inhibition at 42 degC after 24 hrs by two-fold dilution method in presence of paraquat. It is filed as functional.
A short description of data set [19]: Reduction of ATPase activity of DNAK (unknown origin) using ALLQSRLLLSAPRRAAATARY as substrate at 100 uM by spectrophotometric analysis relative to control in presence of cochaperone DnaJ.
Data set [20] concerns Escherichia coli. The data set can be described thus: Antibacterial activity against Escherichia coli MC4100 assessed as growth inhibition at 37 degC after 24 hrs by two-fold dilution method. The class given is functional, organism-based.
Data set [21] deals with Escherichia coli. The data set can be described thus: Antibacterial activity against CLPB-deleted Escherichia coli MC4100 assessed as growth inhibition at 0.1 to 1000 uM at 37 to 47 degC after 24 hrs by two-fold dilution method in presence of paraquat. The class given is functional, organism-based.
Data set [22] concerns Escherichia coli. As to the kind of experiment: Antibacterial activity against CLPB-deleted Escherichia coli MC4100 assessed as growth inhibition at 37 degC after 24 hrs by two-fold dilution method. The class given is functional, organism-based.
A short description of data set [23]: Reduction of ATPase activity of DNAK (unknown origin) at 100 uM by spectrophotometric analysis.
The nature of data set [24]: Inhibition of ATPase activity of CLPB (unknown origin) expressed in Escherichia coli MC4100 using 10 uM alpha-casein as substrate at 1 to 100 uM by spectrophotometric analysis.
The nature of data set [25]: Binding affinity to CLPB hexamer (unknown origin) expressed in Escherichia coli MC4100 at 100 uM by sedimentation equilibrium analysis.
The nature of data set [26]: Binding affinity to CLPB E276A/E678A mutant (unknown origin) expressed in Escherichia coli MC4100 assessed as change in melting temperature by DSF analysis.
Data set [27] in a line: Inhibition of ATPase activity of CLPB (unknown origin) expressed in Escherichia coli MC4100 using 20 to 100 uM alpha-casein as substrate at 1 to 100 uM by spectrophotometric analysis.
The subject of data set [28] is Escherichia coli. The data set can be described thus: Antibacterial activity against Escherichia coli MC4100 assessed as growth inhibition at 0.1 to 1000 uM at 37 to 47 degC after 24 hrs by two-fold dilution method in presence of paraquat. The class given is functional, organism-based.
Data set [29] has as its system Escherichia coli. The data set can be described thus: Antibacterial activity against TolC-deleted Escherichia coli JLS1015 at 37 to 47 degC after 7 hrs by two-fold dilution method. It is filed as functional. Particulars: JLS1015, 7 h.
Data set [30] can be described thus: Cytotoxicity against CHO cells assessed as cell viability at 40 to 100 uM after 72 hrs by tetrazolium reduction assay relative to control. It is filed as cell-based, Cricetulus griseus. Particulars: chinese hamster, read-out: Activity.
Data set [31] is described as follows: Cytotoxicity against human HeLa cells assessed as cell viability at 40 to 100 uM after 72 hrs by tetrazolium reduction assay relative to control. The following applies: read-out: Activity. It is filed as cell-based.
The test system of data set [32] is Escherichia coli. The data set can be described thus: Antibacterial activity against Escherichia coli MC4100 assessed as reduction of CFU count at 300 uM at 42 degC after 24 hrs by two-fold dilution method. It is filed as functional.
Data set [33] in a line: Effect on ATPase activity of DNAK (unknown origin) using ALLQSRLLLSAPRRAAATARY as substrate at 100 uM by spectrofluorimetric analysis.
The subject of data set [34] is Escherichia coli. As to the kind of experiment: Antibacterial activity against Escherichia coli MC4100 assessed as growth inhibition at 42 degC after 24 hrs by two-fold dilution method in presence of paraquat. It is filed as functional. The following applies: MC4100, 24 h.
Data set [35] in a line: Reduction of ATPase activity of DNAK (unknown origin) using ALLQSRLLLSAPRRAAATARY as substrate at 100 uM by spectrophotometric analysis relative to control in presence of cochaperone GrpE.
Data set [36] concerns Escherichia coli. As to the kind of experiment: Antibacterial activity against Escherichia coli BL21(DE3) assessed as growth inhibition at 37 degC after 24 hrs by two-fold dilution method. It is filed as functional.

Values after ≈ are worked out from the molar mass of the structure shown. Active and inactive are the calls of the source. The calls are words filed in the database; no cut-off is given here.

By IC50 is commonly meant the concentration that inhibits the measured activity by half. As a reminder, the ΔTm is the change in melting temperature against a reference sample. As to `CCn1c(=O)c(C(=O)Nc2cccc(O)c2)c(O)c2ccccc21`, the IC50 in data set [1] was 65 µM; in [2], more than 100 µM; in data set [5], more than 100 µM; in [9] it was 40 µM. Further, the ΔTm is 2.2 °C in data set [3], 1.5 °C in data set [7], -0.8 °C in [8] and -0.8 °C in data set [11]. Also, the inhibition result in data set [4] and in data set [10] was “Active” in each case. Moreover, the outcome in [6] was inactive.
As usually defined, the Kd is the equilibrium constant for the complex coming apart. One may read the MIC as the least concentration at which growth counts as inhibited. `O=Cc1cc(Cc2ccccc2Cl)cc([N+](=O)[O-])c1O`: the IC50 in data set [1] turned out to be 7 µM; in data set [2] it was 6 µM; in data set [5] it was 4 µM; in data set [9], 6 µM. Also, the outcome (in the data set with Escherichia coli [12]; with Escherichia coli [17]; in data set [33]) was inactive. Also, the Kd in [13] amounted to 12.9 µM; in data set [26], 12 µM. For the same molecule, the “growth inhibition (GI)” value with Escherichia coli [14], in the data set with Escherichia coli [20], in the data set with Escherichia coli [22] and in the data set on Escherichia coli [28] was “Active” each time. Besides, the log10cfu in the data set on Escherichia coli [15] and in the data set on Escherichia coli [32] was 2 throughout. In addition, the outcome in data set [16], in [23], in data set [25] and in [6] was Active. The MIC was found to be 60 µM in the data set on Escherichia coli [18], 5 µM (≈ 1.46 µg/mL) with Escherichia coli [29] and 60 µM in the data set with Escherichia coli [34]. Moreover, the ΔTm in data set [3] was 7.2 °C; in [7], 6.7 °C; in data set [8], 8.1 °C; in data set [11], 4.9 °C. Also, the fold change (FC) in [19] and in [35] was 7 each time. The “growth inhibition (GI)” value in the data set on Escherichia coli [21] was “inactive”. The inhibition result in data set [24] and in data set [27] was “Active” each time. In addition, the viability at 72 h, up to 100 µM in data set [30] and in [31] was 50% in each case.
As to `CC1(C)S[C@@H]2[C@H](NC(=O)[C@H](N)c3ccccc3)C(=O)N2[C@H]1C(=O)O` [AMPICILLIN], in the data set with Escherichia coli [36], the MIC stood at 2 µM (≈ 0.699 µg/mL).
